What all share (experiment): Minimum inhibitory concentration (MIC90)
Assay type in all cases: cell-based

Experiment [1] has as its system H influenzae/β-lactamase negative. The conditions noted are these: inhibits growth of 90% of the strains. The source says:
(§1) The concentrations of the antibiotics of formula (I) in the compositions of the present invention will vary depending on the intended use of the compositions (e.g., treatment of existing infections or prevention of post-surgical infections), and the relative antimicrobial activity of the specific antibiotic selected. The antimicrobial activity of antibiotics is generally expressed as the minimum concentration required to inhibit the growth of a specified pathogen. This concentration is also referred to as the “minimum inhibitory concentration” or “MIC”. The term “MIC90” refers to the minimum concentration of antibiotic required to inhibit the growth of ninety percent (90%) of the strains of a species. The concentration of an antibiotic required to totally kill a specified bacteria is referred to as the “minimum bactericidal concentration” or “MBC”.

A further experiment deals with P. aeruginosa. The conditions noted are these: Pseudomonas aeruginosa, inhibits growth of 90% of the strains.
Source text: as §1

The test system of experiment [2] is H. influenzae/β-lactamase positive. The conditions noted are these: Haemophilus influenzae, inhibits growth of 90% of the strains.
Source text: as §1

The subject of experiment [3] is S. aureus/quinolone resistant. The conditions noted are these: Staphylococcus aureus, inhibits growth of 90% of the strains.
Source text: as §1

The subject of experiment [4] is S. pneumoniae/penicillin resistant. The conditions noted are these: Streptococcus pneumoniae, inhibits growth of 90% of the strains.
Source text: as §1

In experiment [5] the test system is S. aureus/methicillin resistant. The conditions noted are these: Staphylococcus aureus, inhibits growth of 90% of the strains.
Source text: as §1

Experiment [6] relates to S. epidermidis/methicillin resistant. The conditions noted are these: Staphylococcus epidermidis, inhibits growth of 90% of the strains.
Source text: as §1

Experiment [7] concerns S. aureus/methicillin sensitive. The conditions noted are these: Staphylococcus aureus, inhibits growth of 90% of the strains.
Source text: as §1

Experiment [8] concerns S. pneumoniae/penicillin sensitive. The conditions noted are these: Streptococcus pneumoniae, inhibits growth of 90% of the strains.
Source text: as §1

Experiment [9] has as its system S. epidermidis/methicillin sensitive. The conditions noted are these: Staphylococcus epidermidis, inhibits growth of 90% of the strains.
Source text: as §1

Molecules are shown by their SMILES. Values after ≈ are worked out from the molar mass of the structure shown.

Regarding `COc1c(N2C[C@@H]3CCCN[C@@H]3C2)c(F)cc2c(=O)c(C(=O)O)cn(C3CC3)c12` [Moxifloxacin], the MIC90 in experiment [1] turned out to be 0.06 µg/mL (≈ 0.149 µM); in the experiment on P. aeruginosa, 8 µg/mL (≈ 19.9 µM); in experiment [2] it was 0.06 µg/mL (≈ 0.149 µM); in experiment [3], 4 µg/mL (≈ 9.96 µM); in experiment [4] it was 0.25 µg/mL (≈ 0.623 µM); in experiment [5], 4 µg/mL (≈ 9.96 µM). Moreover, the MIC90 was 4 µg/mL (≈ 9.96 µM) in [6], 0.13 µg/mL (≈ 0.324 µM) in [7], 0.25 µg/mL (≈ 0.623 µM) in experiment [8] and 0.25 µg/mL (≈ 0.623 µM) in experiment [9].

These data come from patent US8993636B2 (Alcon, Inc., priority 1998, dated 2015).
